We go through 24 molecules from paper PMC5126104, “Identification of a Chemoreceptor in Pseudomonas aeruginosa That Specifically Mediates Chemotaxis Toward α-Ketoglutarate” (Frontiers in Microbiology, 2016).

Sequences and labels used below:
B1: McpK ligand binding domain (McpK-LBD) (domain or fragment, Pseudomonas aeruginosa PAO1, UniProt Q9HUB1 38-293, looked up)
chain: RTLTHQTALSEQLAEVASLMEQTQQAEQGRLAFEAGSDPRQAEQVRQTLAGMLQRLQALRDSELDPAALAHQVEAIEAYRKAFDDLAAADQQRSAARGVLVGTAQQALDSFARLEELMDASLAQQAGDPQALQRSRAVADLHQQLLMVRYQVRGYVFERSDKAEQAAFAAFDALRQAATTLRGQLPGEADAALEQAMGSLQGYRGGIEQFRAGVIRTRQAQQAMQSSTQDMARAGRTLTEAGRQLRESTASRDRAS
notes: No removal of the tag is described; In monomer-dimer equilibrium by AUC; also called PA5072-LBD; source: E. coli BL21 (DE3), pET28-McpK-LBD, purified (HisTrap column)

One data set concerns the target T1, McpK (PA5072) chemoreceptor ligand binding domain (Pseudomonas aeruginosa, UniProt Q9HUB1).
T1 construct: McpK-LBD, Arg38–Ser293
The data set is described as follows: ITC (two symmetric-site cooperative model; Kd1 =[…], Kd2 =[…]); supported by thermal shift (+[…]°C) and AUC dimer stabilization.
Settings: not given
As a reminder, the Kd is the free concentration of one partner at which half of the binding sites on the other are occupied at equilibrium, for simple one-to-one binding. Turning to `O=C(O)CCC(=O)C(=O)O` [α-ketoglutarate], the Kd is 80.9 µM.

The target in a further data set is T1, McpK (PA5072) chemoreceptor ligand binding domain.
Test: not given
Also on record: thermal shift assay with SYPRO Orange, Tm change of recombinant McpK-LBD. The following applies: binder. On the procedure:
Thermal shift assays were performed using a BioRad MyIQ2 Real-Time PCR instrument. Ligands were prepared by dissolving Biolog Phenotype Microarray compounds in 50 μl of MilliQ water to obtain a final concentration of around 10–20 mM (as indicated by the manufacturer). Screening was performed with plates PM1, PM2A, PM3B, PM4A, and PM5. Each plate contains 95 compounds and a control (Supplementary Figure S1). Each 25 μl assay mixture contained 40 μM protein in 5 mM Tris, 5 mM Pipes, 5 mM Mes, pH8.0 and SYPRO orange (Life Technologies) at 5x concentration. Aliquots of 2.5 μl of the resuspended Biolog compounds were added to each well. Samples were heated from 23°C to 85°C at a scan rate of 1°C/min. The protein unfolding curves were monitored by detecting changes in SYPRO Orange fluorescence. Melting temperatures were determined using the first derivative values from the raw fluorescence data. […] Ligands tested included different bacterial carbon-, nitrogen-, phosphorous-, and sulfur sources as well as to nutrient supplements, which are listed in Supplementary Figure S1. A total of 13 compounds were identified that increased or decreased the Tm by at least 2°C (Supplementary Table S2), which is the generally accepted threshold for a relevant ligand-induced change in protein stability.
Take `NCCCCC(=O)O` [5-Aminovaleric acid]: the “Tm Shift (°C)” value was “+3.9 °C”.

As to `CC(=O)O` [Acetate], the “Tm Shift (°C)” value was -0.2 °C.

Consider `CCCC(=O)O` [Butyrate], for which the “Tm Shift (°C)” value was “+0.7 °C”.

On to `NC(=O)OP(=O)(O)O` [Carbamyl phosphate], for which the “Tm Shift (°C)” value is “+3.5 °C”.

On to `O=C(O)CC(O)(CC(=O)O)C(=O)O` [Citrate], for which the “Tm Shift (°C)” value is “+0.8 °C”.

With `O=C1O[C@@H]([C@H](O)CO)[C@H](O)[C@H]1O` [D-Galactonic acid-γ-lactone], the “Tm Shift (°C)” value is “+2 °C”.

Turning to `O=C(O)[C@H]1OC(O)[C@H](O)[C@@H](O)[C@H]1O` (stereo partly drawn) [D-Galacturonic acid], the “Tm Shift (°C)” value was “+2.3 °C”.

Take `N[C@@H](C(=O)O)[C@@H](O)[C@H](O)[C@H](O)CO` [D-Glucosaminic acid]: the “Tm Shift (°C)” value was “+3.5 °C”.

Regarding `O=C(O)/C=C/C(=O)O` [Fumarate], the “Tm Shift (°C)” value is “+0.3 °C”.

`C=C(CC(=O)O)C(=O)O` [Itaconate]: the “Tm Shift (°C)” value is -2.2 °C.

In the case of `N[C@@H](CCC(=O)O)C(=O)O` [L-Glutamic acid], the “Tm Shift (°C)” value is “+2.3 °C”.

For the molecule `NC(=O)CC[C@H](N)C(=O)O` [L-Glutamine], the “Tm Shift (°C)” value is “+2.2 °C”.

As for `CC(O)C(=O)O` (stereo not drawn) [Lactate], the “Tm Shift (°C)” value was “+0.2 °C”.

In the case of `O=C(O)CC(O)C(=O)O` (stereo not drawn) [Malate], the “Tm Shift (°C)” value is “+0.5 °C”.

With `COC(=O)C(C)=O` [Methyl pyruvate], the “Tm Shift (°C)” value was “+3.3 °C”.

As to `O=C(O)CC(=O)C(=O)O` [Oxaloacetate], the “Tm Shift (°C)” value was “+0 °C”.

On to `NCCc1ccccc1` [Phenylethylamine], for which the “Tm Shift (°C)” value was “+3.5 °C”.

On to `CC(=O)C(=O)O` [Pyruvate], for which the “Tm Shift (°C)” value was “+0.1 °C”.

As to `O=C(O)CCC(=O)O` [Succinate], the “Tm Shift (°C)” value was -0.3 °C.

For `O=C(O)CC(CC(=O)O)C(=O)O` [Tricarballylate], the “Tm Shift (°C)” value was “+0.3 °C”.

With `O=c1cc[nH]c(=O)[nH]1` [Uracil], the “Tm Shift (°C)” value is “+4.2 °C”.

As to `O=C(O)CCC(=O)C(=O)O` [α-ketoglutarate], the “Tm Shift (°C)” value was “+5.2 °C”.

For `NCCCC(=O)O` [γ-Aminobutyric acid], the “Tm Shift (°C)” value is “+4.1 °C”.

Another data set concerns the molecule itself. Nature of the data set: AUC; sedimentation velocity, McpK-LBD (10-50 uM) with 1 mM alpha-ketoglutarate, 7 °C, 5 mM Tris, 5 mM PIPES, 5 mM MES, pH 8.0; c(s) analysis in SEDFIT.
Settings: not given
A word on the stoichiometry N: it is the number of molecules, sites or subunits per partner or assembly. For the molecule B1, the “stoichiometry N” value is 2.

The next data set concerns the molecule itself. The data set is described as follows: AUC; sedimentation equilibrium, multi-speed, ligand-free McpK-LBD at 40, 50 and 60 uM, 7 °C, dialysis buffer (5 mM Tris, 5 mM PIPES, 5 mM MES, pH 8.0); global fit in SEDPHAT; dimer to monomers.
Settings: not given
In turn, B1 had a Kd of 55 µM.

Another data set concerns the molecule itself. The data set is described as follows: AUC; sedimentation equilibrium, multi-speed, McpK-LBD at 40, 50 and 60 uM with 1 mM alpha-ketoglutarate, 7 °C, dialysis buffer (5 mM Tris, 5 mM PIPES, 5 mM MES, pH 8.0); global fit in SEDPHAT; dimer to monomers.
Settings: not given
In the case of B1, binding was characterised by a dissociation constant (Kd) of 5.9 µM.
